Data taken from patent publication US20040009485A1, “Cellular arrays for the identification of altered gene expression” (priority 2002, published 2004).

System: LuxArray 1.04 E. coli strains (luxCDABE gene fusions)
Assay: LuxArray 1.04 limonene stress of the reporter array in liquid culture
Assay type: cell-based
Settings: 80% saturated limonene in LB
Experimental: Microplates from −80° C. containing the LuxArray 1.04 E. coli strains were thawed and used to inoculate 100 μl LB medium supplemented with 100 μg/ml ampicillin in Costar#3595 flat bottomed 96-well microplates. Following overnight growth at 37° C., the plates were visually examined and any wells with little or no turbidity were recorded. Then these cultures were diluted by transfer of 15 μl to 135 μl LB medium in Costar #3595, flat bottom 96-well microplates and were moderately swirl shaken on an IKA Schuttler MTS 4 shaker at setting 400 for two hrs at 37° C. in a humidified box. Twenty μl of each these actively growing cultures were transferred to the corresponding well in sets of three microplates, one containing 80 μl of LB medium, another containing 80 μl of LB medium saturated with limonene at room temperature, and the third containing 40 μl of LB medium saturated with limonene and 40 μl of LB medium. An initial (zero time) reading was taken using an MLX microplate luminometer (Dynex) pre-warmed to 37° C. Then the plates were placed at 37° C. without shaking. Additional bioluminescent measurements were taken at 45, 90, and 135 minutes. To limit the number of microplates handled each day, LuxArray 1.04 microplates 1 to 5, microplates 6 to 10, microplates 11 to 15, and microplates […] were used on each of four different days.
The data were normalized to correct for growth-inhibition caused by limonene on the basis of each individual day that data was collected. The bioluminescence (RLU) of each individual culture for each day of experimentation under each of the three conditions, were added to determine the daily array total RLU. These were used to find a daily normalization factor (DNF) as follows:
DNF=Daily total array signal(time zero, LB control)/Daily total array signal(time x, condition y)
Each measurement from the corresponding day, time point, and condition was multiplied by DNF to yield a normalized signal. The data from wells that were scored to have little or no growth were not used in further analysis. The normalized data were analyzed with GeneSpring (Silicon Genetics) software, which averaged the signal from each of the duplicate cultures for each reporter gene fusion.
Thus, patterns of gene expression from the 80% saturated limonene in LB medium were further examined. […] These lists were examined and gene fusions with very low normalized RLU values (<0.012 RLU) at all conditions were eliminated. […] The designation of “>2X” is given for upregulation while “*” is listed if the expression was less than 2 fold increased. At 45 minutes, the expression of fourteen gene fusions was increased; none of these was increased 3 fold or higher. At 90 minutes, 37 gene fusions were induced; these included all but one of the gene fusions observed at 45 minutes. […] These were fusions of the luxCDABE reporter to the promoter regions of uhpT (3.8×), nirB (3.7×) and narK (3.6×). At 135 minutes, 39 gene fusions were induced, which included 13 fusions not observed at 45 or 90 minutes.

C=C(C)[C@H]1CC=C(C)CC1 [limonene]
upregulation of gene fusion (b2451 fusion, 135 minutes): >2X (The designation of “>2X” is given for upregulation)
upregulation of gene fusion (b2550 fusion, 45 minutes): * (“*” is listed if the expression was less than 2 fold increased)
upregulation of gene fusion (b2550 fusion, 90 minutes): >2X (The designation of “>2X” is given for upregulation)
upregulation of gene fusion (b2550 fusion, 135 minutes): * (“*” is listed if the expression was less than 2 fold increased)
upregulation of gene fusion (b2699 (recA) fusion, 45 minutes): * (“*” is listed if the expression was less than 2 fold increased)
upregulation of gene fusion (b2699 (recA) fusion, 90 minutes): >2X (The designation of “>2X” is given for upregulation)
upregulation of gene fusion (b2699 (recA) fusion, 135 minutes): >2X (The designation of “>2X” is given for upregulation)
upregulation of gene fusion (b2999 fusion, 45 minutes): >2X (The designation of “>2X” is given for upregulation)
upregulation of gene fusion (b2999 fusion, 90 minutes): * (“*” is listed if the expression was less than 2 fold increased)
upregulation of gene fusion (b2999 fusion, 135 minutes): * (“*” is listed if the expression was less than 2 fold increased)
upregulation of gene fusion (b3012 fusion, 45 minutes): >2X (The designation of “>2X” is given for upregulation)
upregulation of gene fusion (b3012 fusion, 90 minutes): >2X (The designation of “>2X” is given for upregulation)
upregulation of gene fusion (b3012 fusion, 135 minutes): >2X (The designation of “>2X” is given for upregulation)
upregulation of gene fusion (b3245 fusion, 45 minutes): * (“*” is listed if the expression was less than 2 fold increased)
upregulation of gene fusion (b3245 fusion, 90 minutes): >2X (The designation of “>2X” is given for upregulation)
upregulation of gene fusion (b3245 fusion, 135 minutes): >2X (The designation of “>2X” is given for upregulation)
upregulation of gene fusion (b3267 (yhdV) fusion, 45 minutes): * (“*” is listed if the expression was less than 2 fold increased)
upregulation of gene fusion (b3267 (yhdV) fusion, 90 minutes): >2X (The designation of “>2X” is given for upregulation)
upregulation of gene fusion (b3267 (yhdV) fusion, 135 minutes): >2X (The designation of “>2X” is given for upregulation)
upregulation of gene fusion (b3336 (bfr) fusion, 45 minutes): * (“*” is listed if the expression was less than 2 fold increased)
upregulation of gene fusion (b3336 (bfr) fusion, 90 minutes): >2X (The designation of “>2X” is given for upregulation)
upregulation of gene fusion (b3336 (bfr) fusion, 135 minutes): * (“*” is listed if the expression was less than 2 fold increased)
upregulation of gene fusion (b3365 (nirB) fusion, 45 minutes): * (“*” is listed if the expression was less than 2 fold increased)
upregulation of gene fusion (b3365 (nirB) fusion, 90 minutes): >2X (The designation of “>2X” is given for upregulation)
upregulation of gene fusion (b3365 (nirB) fusion, 135 minutes): >2X (The designation of “>2X” is given for upregulation)
upregulation of gene fusion (b3419 (yhgJ) fusion, 45 minutes): * (“*” is listed if the expression was less than 2 fold increased)
upregulation of gene fusion (b3419 (yhgJ) fusion, 90 minutes): >2X (The designation of “>2X” is given for upregulation)
upregulation of gene fusion (b3419 (yhgJ) fusion, 135 minutes): >2X (The designation of “>2X” is given for upregulation)
upregulation of gene fusion (b3666 (uhpT) fusion, 45 minutes): * (“*” is listed if the expression was less than 2 fold increased)
upregulation of gene fusion (b3666 (uhpT) fusion, 90 minutes): >2X (The designation of “>2X” is given for upregulation)
upregulation of gene fusion (b3666 (uhpT) fusion, 135 minutes): >2X (The designation of “>2X” is given for upregulation)
upregulation of gene fusion (b3904 (rhaB) fusion, 45 minutes): >2X (The designation of “>2X” is given for upregulation)
upregulation of gene fusion (b3904 (rhaB) fusion, 90 minutes): >2X (The designation of “>2X” is given for upregulation)
upregulation of gene fusion (b3904 (rhaB) fusion, 135 minutes): >2X (The designation of “>2X” is given for upregulation)
upregulation of gene fusion (b3942 (katG) fusion, 45 minutes): * (“*” is listed if the expression was less than 2 fold increased)
upregulation of gene fusion (b3942 (katG) fusion, 90 minutes): >2X (The designation of “>2X” is given for upregulation)
upregulation of gene fusion (b3942 (katG) fusion, 135 minutes): >2X (The designation of “>2X” is given for upregulation)
upregulation of gene fusion (b4043 (lexA) fusion, 45 minutes): * (“*” is listed if the expression was less than 2 fold increased)
upregulation of gene fusion (b4043 (lexA) fusion, 90 minutes): >2X (The designation of “>2X” is given for upregulation)
upregulation of gene fusion (b4043 (lexA) fusion, 135 minutes): * (“*” is listed if the expression was less than 2 fold increased)
upregulation of gene fusion (b4106 (phnC) fusion, 45 minutes): >2X (The designation of “>2X” is given for upregulation)
upregulation of gene fusion (b4106 (phnC) fusion, 90 minutes): >2X (The designation of “>2X” is given for upregulation)
upregulation of gene fusion (b4106 (phnC) fusion, 135 minutes): >2X (The designation of “>2X” is given for upregulation)
upregulation of gene fusion (b4264 (yjgS) fusion, 45 minutes): * (“*” is listed if the expression was less than 2 fold increased)
upregulation of gene fusion (b4264 (yjgS) fusion, 90 minutes): >2X (The designation of “>2X” is given for upregulation)
upregulation of gene fusion (b4264 (yjgS) fusion, 135 minutes): * (“*” is listed if the expression was less than 2 fold increased)
upregulation of gene fusion (b4392 (slt) fusion, 45 minutes): >2X (The designation of “>2X” is given for upregulation)
upregulation of gene fusion (b4392 (slt) fusion, 90 minutes): >2X (The designation of “>2X” is given for upregulation)
upregulation of gene fusion (b4392 (slt) fusion, 135 minutes): * (“*” is listed if the expression was less than 2 fold increased)
upregulation of gene fusion (fold) (katG promoter fusion, 135 minutes): 4.1 ×
upregulation of gene fusion (fold) (narK promoter fusion, 90 minutes): 3.6 ×
upregulation of gene fusion (fold) (nirB promoter fusion, 90 minutes): 3.7 ×
upregulation of gene fusion (fold) (nirB promoter fusion, 135 minutes): 4.1 ×
upregulation of gene fusion (fold) (uhpT promoter fusion, 90 minutes): 3.8 ×
upregulation of gene fusion (fold) (uhpT promoter fusion, 135 minutes): 7.7 ×
